Data as given in patent US20240390526A1, “NEAR-INFRARED FLUORESCENT DYE-LOADED POLYMER MICROSPHERES FOR LABELLING LESIONS, AND FORMULATION THEREOF” (National Cancer Center, priority 2022, published 2024).

Test: Fluorescence spectrum / intensity of dye solutions, dye complexes and microsphere dispersions (multi-function microplate reader, λex=730 nm)
Assay type: physicochemical
Settings: aqueous solution
Protocol: 0.5 mg of indocyanine green (Dianogreen Injection) (ICG, Jeil Pharmaceutical Co., Ltd.) as a near-infrared fluorescent dye was dissolved in 1 mL of distilled water, and then diluted with distilled water to prepare an indocyanine green solution at a concentration of 30 μM. For the indocyanine green/human serum albumin (HSA, SK Plasma) complex for comparison of fluorescence signals with the indocyanine green solution, 0.5 mg of indocyanine green powder was dissolved in a mixed solution of 0.214 mL of human serum albumin solution (20% concentration) and 0.786 mL of distilled water, and then diluted with distilled water to prepare an indocyanine green/human serum albumin complex (ICG-HSA) at a concentration of 30 μM. To compare fluorescence spectra, 200 μL of each prepared solution was aliquoted and placed in a 96-well plate, and the fluorescence spectrum (λex=730 nm) was measured using a multi-function microplate reader (SPARK, Tecan Trading AG, Zurich, Switzerland).
(§1) To compare fluorescence signals of the prepared the microspheres and the indocyanine green/human serum albumin complex, the same concentration of indocyanxhine green complex solution and dispersion of microparticles were prepared. […] Using the information on the content of indocyanine green in PLGA microspheres evaluated by the quantification, a dispersion was prepared by adding indocyanine green to 0.3 mL of distilled water so that the concentration was 30 μM. To compare fluorescence spectra, 200 μL of each of the prepared solution and dispersion was aliquoted and placed in a 96-well plate, and the fluorescence spectrum (λex=730 nm) was measured using a multi-function microplate reader (SPARK, Tecan Trading AG, Zurich, Switzerland).
as §1, with “To compare the fluorescence signals” for “To compare fluorescence signals”, “the prepared microspheres and” for “the prepared the microspheres and”, “multi-function microplate reader. Fluorescence images were analyzed using fluorescence imaging equipment (IVIS Lumina XR, Xenogen Corporation-Caliper, CA, USA) after putting 300μl of the same solution into a microtube (λex=780/20 nm, λem=845/40 nm). […]” for “multi-function microplate reader (SPARK, Tecan Trading AG, Zurich, Switzerland).”

emission peak [nm] | Compound
812 | Flamma774 carboxylic acid
780 | C[N+]1=C(C=CC2=CC(=CC=C3N(CCCCCC(=O)O)c4ccc(S(=O)(=O)[O-])cc4C3(C)C)CCC2)C(C)(C)c2cc(S(=O)(=O)[O-])ccc21.[K+] [Cy7, sulfo-cyanine7 carboxylic acid]
806 | CC1(C)C(/C=C/C2=C(Oc3ccc(S(=O)(=O)O)cc3)C(=C/C=C3/N(CCCCS(=O)(=O)O)c4ccc(S(=O)(=O)[O-])cc4C3(C)C)/CCC2)=[N+](CCCCCC(=O)O)c2ccc(S(=O)(=O)O)cc21 [IRDye 800CW, IRDye® 800CW carboxylate]
810 | C[N+]1=C(C=CC2=CC(=CC=C3N(CCCCCC(=O)[O-])c4ccc5c(S(=O)(=O)[O-])cc(S(=O)(=O)[O-])cc5c4C3(C)C)CCC2)C(C)(C)c2c1ccc1c(S(=O)(=O)O)cc(S(=O)(=O)[O-])cc21.[K+].[K+].[K+] [Cy7.5, sulfo-cyanine7.5 carboxylic acid]
